These results are taken from patent US7973055B2, “Crystalline forms of a biphenyl compound” (Theravance, Inc., priority 2006, dated 2011).

pKi: −log10 of the molar value. Bounds are passed on as bounds.

Experiment [1] addresses T1, M3 muscarinic receptor subtype (hM3) (Homo sapiens, UniProt P20309).
T1 construct: expressed in transfected cells
Put plainly: Radioligand binding assay ([3H]-NMS displacement, CHO cell membranes). The conditions noted are these: [3H]-NMS 1 nM, this or a similar assay. Here is the method: CHO cell lines stably expressing cloned human hM1, hM2, hM3 and hM4 muscarinic receptor subtypes, respectively, were grown to near confluency in medium consisting of HAM's F-12 supplemented with 10% FBS and 250 μg/mL Geneticin. The cells were grown in a 5% CO2, 37° C. incubator and lifted with 2 mM EDTA in dPBS. Cells were collected by 5 minute centrifugation at 650×g, and cell pellets were either stored frozen at −80° C. or membranes were prepared immediately. For membrane preparation, cell pellets were resuspended in lysis buffer and homogenized with a Polytron PT-2100 tissue disrupter (Kinematica AG; 20 seconds×2 bursts). Crude membranes were centrifuged at 40,000×g for 15 minutes at 4° C. […] The protein concentration of the membrane suspension was determined by the method described in Lowry, O. et al., Journal of Biochemistry 193:265 (1951). […]
Radioligand binding assays were performed in 96-well microtiter plates in a total assay volume of 100 μL. […] Filter plates were rinsed three times with wash buffer (10 mM HEPES) to remove unbound radioactivity. […] The plates were then counted in a PerkinElmer Topcount liquid scintillation counter (PerkinElmer Inc., Wellesley, Mass.). Binding data were analyzed by nonlinear regression analysis with the GraphPad Prism Software package (GraphPad Software, Inc., San Diego, Calif.) using the one-site competition model. […]

In experiment [2] the test system is ACh-induced bronchoconstriction. Put plainly: Duration of bronchoprotection in guinea pig model of acetylcholine-induced bronchoconstriction. The class given is in vivo. Particulars: inhalation, 1.5 hours post-dose, expected. On the procedure:
Groups of six male guinea pigs (Duncan-Hartley (HsdPoc:DH) Harlan, Madison, Wis.) weighing between 250 and 350 g are individually identified by cage cards. Throughout the study, animals are allowed access to food and water ad libitum.
Test compounds are administered via inhalation over 10 minutes in a whole-body exposure dosing chamber (R&S Molds, San Carlos, Calif.). The dosing chambers are arranged so that an aerosol was simultaneously delivered to 6 individual chambers from a central manifold. Guinea pigs are exposed to an aerosol of a test compound or vehicle (WFI). […] This is measured gravimetrically by comparing pre-and post-nebulization weights of the filled nebulizer.
The bronchoprotective effects of test compounds administered via inhalation are evaluated using whole body plethysmography at 1.5, 24, 48 and 72 hours post-dose.
Forty-five minutes prior to the start of the pulmonary evaluation, each guinea pig is anesthetized with an intramuscular injection of ketamine (43.75 mg/kg), xylazine (3.50 mg/kg) and acepromazine (1.05 mg/kg). […] The depth of anesthesia is monitored and adjusted if the animal responds to pinching of its paw or if the respiration rate is greater than 100 breaths/minute. […]
Starting this program initiates the experimental protocol and data collection. […] By integrating this signal over time, a measurement of […] is calculated for each breath. […]

T1 sequence (P20309 whole entry): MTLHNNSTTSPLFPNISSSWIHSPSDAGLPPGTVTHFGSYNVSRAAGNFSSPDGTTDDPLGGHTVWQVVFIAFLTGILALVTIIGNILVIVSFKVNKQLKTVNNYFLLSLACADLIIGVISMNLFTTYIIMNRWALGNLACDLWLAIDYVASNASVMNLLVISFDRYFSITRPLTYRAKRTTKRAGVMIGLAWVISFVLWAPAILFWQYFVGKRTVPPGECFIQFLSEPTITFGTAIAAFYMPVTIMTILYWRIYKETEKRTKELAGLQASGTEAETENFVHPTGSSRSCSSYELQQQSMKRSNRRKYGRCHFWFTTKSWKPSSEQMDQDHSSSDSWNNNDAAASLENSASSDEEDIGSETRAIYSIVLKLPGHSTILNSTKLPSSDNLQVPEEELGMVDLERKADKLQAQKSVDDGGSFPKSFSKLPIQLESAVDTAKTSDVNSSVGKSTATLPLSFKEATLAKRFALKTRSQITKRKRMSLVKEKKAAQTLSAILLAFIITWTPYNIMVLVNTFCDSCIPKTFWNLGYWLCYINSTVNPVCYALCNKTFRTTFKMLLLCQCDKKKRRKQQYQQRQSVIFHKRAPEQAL

On to `CN(CCN1CCC(OC(=O)Nc2ccccc2-c2ccccc2)CC1)C(=O)c1cccc(C(=O)NCCNCc2ccc(O)cc2)c1` [compound of formula I, biphenyl-2-ylcarbamic acid 1-[2-({3-[2-(4-hydroxybenzylamino)ethylcarbamoyl]benzoyl}methylamino)ethyl]piperidin-4-yl ester], for which the negative-log Ki (pKi) (commonly the negative decadic logarithm of the Ki, by convention in mol/L) in experiment [1] was greater than 8.30. Moreover, the “PD2(50) for ACh-induced bronchoconstriction” value in experiment [2] is listed as “less than 200 μg/mL”.
